Measurements: US20130202659A1, “POLYMER-AGENT CONJUGATES, PARTICLES, COMPOSITIONS, AND RELATED METHODS OF USE” (CERULEAN PHARMA INC., priority 2012, published 2013)

Tests used:
MDA-MB-435 tumor = test: MDA-MB-435 breast xenograft model, delayed treatment (Example 93); settings: mouse, in vivo
Description: See, for example, FIG. 7.

[1] = Tolerability in normal male C57BL/6 non-tumor-bearing mice (Example 47); type: in vivo, mouse
Method: Treatments were administered intravenously on a q7d×2 schedule, i.e., two treatments seven days apart (the first treatment was on Day one). The study ended on Day 14, six days after the 2nd treatment. Blood was collected for complete blood count (CBC) and serum chemistry. Leg muscles were collected so that nerve degeneration could be assessed from the sciatic nerve.

[2] = Tolerability in H1299 tumor-bearing mice (Example 60); type: in vivo, mouse
Method: (§1) The treatments were administered IV into the tail vein at a dose volume of 10 and 20 mL/kg for 30 and 60 mg/kg respectively, beginning on post-implantation day 30 when the mean tumor volume was ca. 170 mm^3 (small tumor group), and on day 37 when the mean tumor volume was ca. 440 mm^3 (large tumor group). Body weight and tumor volume were measured for three times a week during the dosing period and twice a week thereafter. In addition, animals were also monitored for any morbidity and adverse effects for three times a week during the dosing period and twice a week thereafter.
Tumor volume was calculated with (width×width×length)/2 mm^3 formula. Efficacy was determined by tumor growth inhibition (TGI), tumor growth delay (TGD) and survival. Tumor growth inhibition (TGI) is represented as % and calculated as (1−(treated tumor volume/control tumor volume))×100 when the control group mean tumor volume reached ≧1000 mm^3. Tumor growth delay (TGD) is calculated by subtracting the day when the vehicle treated group reached the maximum tumor size 1000 mm^3 from the day when the treatment group tumor size reached 1000 mm^3.

B16.F10 tumor [3] = test: Efficacy in B16.F10 murine melanoma model (Example 43); type: in vivo, mouse
Method: 7) PEGylated docetaxel-5050 PLGA-β-acetyl nanoparticles (mPEG(5k)-PLGA at 40 wt %) administered at a dose of 15 mg/kg. Refer to table for detailed description of formulations.
Tumor volume was calculated with the following equation: (width×width×length)/2 mm^3.

murine melanoma tumor = test: Efficacy and survival in aggressive murine melanoma model at MTD (Example 92); type: in vivo, mouse; settings: dosed at respective MTD
Method: Thus, the sustained release properties of a particle according to exemplary particle 1 supports less frequent dosing of patients. Methods: Tumor-bearing mice were injected with a particle according to exemplary particle 1 or docetaxel at their respective MTD. See, for example, FIGS. 6a and 6b.

HCT-116 tumor = test: In vivo efficacy, HCT-116 colon xenograft model (Example 44); design: species or system human (in CD-1 nude mice); settings: 30 mg/kg IV weekly×2
Method: HCT-116 cells were grown in culture to confluency in McCoy's 5a medium containing 10% FBS and 1% penicillin/streptomycin and then resuspended in McCoy's 5a (passage 4). This suspension of HCT-116 cells (density=3.7×10^6 cells/mL) was implanted subcutaneously above the right hind leg of male CD-1 nude mice on day 1.

[4] = Tolerability in mouse melanoma model B16.F10 (Example 61); type: in vivo; settings: 15 mg/kg 1/wk×3
Method: The treatments were administered IV into the tail vein at a dose volume of 10 ml/kg, beginning on post-implantation day 5, when the mean tumor volume was ca. 60 mm^3. Animals were monitored for any morbidity and adverse effects three times a week. In addition, body weight and tumor volume were also measured three times a week.

[5] = weekly schedule, 3 injections; cited from earlier work
[6] = Tolerability in ADR-RES tumor-bearing mice (Example 59); type: in vivo, mouse
Method: The treatments were administered IV into the tail vein at a dose volume of 10 and 20 mL/kg for 30 and 60 mg/kg respectively, beginning on post-implantation day 47, when the mean tumor volume was ca. 150 mm^3. Body weight and tumor volume were measured for three times a week during the dosing period and twice a week thereafter. In addition, animals were also monitored for any morbidity and adverse effects for three times a week during the dosing period and twice a week thereafter.
Tumor volume was calculated with (width×width×length)/2 mm^3 formula. […] Tumor growth inhibition (TGI) is represented as % and calculated as (1−(treated tumor volume/control tumor volume))×100 when the control group mean tumor volume reached ≧1000 mm^3. Tumor growth delay (TGD) is calculated by subtracting the day when the vehicle treated group reached the maximum tumor size 1000 mm^3 from the day when the treatment group tumor size reached 1000 mm^3.

SK-OV-3 tumor = test: In vivo efficacy, SK-OV-3 ovarian human xenograft model (Example 45); design: species or system human (in CD-1 nude mice)
Method: SK-OV-3 cells were grown in culture to confluency in RPMI medium containing 10% FBS and 1% penicillin/streptomycin and then resuspended in RPMI (passage 4) for implantation into mice. This suspension of SK-OV-3 cells (density=30×10^6 cells/mL) was implanted into the mammary gland of female CD-1 nude mice on Day 1. […]

[7] = Body weight changes in A2780 tumor-bearing mice (Example 42); type: in vivo, mouse; settings: Day 36
Method: The stock solution was diluted further with PBS to 1.5 mg/mL (for a dose of 15 mg/kg at 10 mL/kg and 30 mg/kg at 20 mL/kg). This formulation was made within 30 minutes of administration to mice.
The treatments were administered 2 times, on Day 8 and Day 15 (weekly×2 injections) for n=8 mice per group. […] On Day 50, the study was ended for all remaining mice. When removed from the study, mice were euthanized by CO2 inhalation.

H1299 tumor = test: Efficacy in non-small cell lung carcinoma model H1299 (Example 60); type: in vivo, nu/nu mice; settings: large tumor group, 30 mg/kg
Method: H1299 cells were grown in culture to 85-90% confluency in RPMI medium supplemented with 10% fetal bovine serum (FBS), 1% glutamine and 1% penicillin/streptomycin. Cells were removed from the culture flask using 0.05% trypsin (passage=4), re-suspended in RPMI medium (density=50×10^6 cells/mL) and were implanted subcutaneously (5×10^6 cells in 100 μL RPMI medium/mouse) into the mammary fat pad area of male nu/nu mice on day 1.
as §1
Tumor volume was calculated with (width×width×length)/2 mm^3 formula. Efficacy was determined by tumor growth inhibition (TGI), tumor growth delay (TGD) and survival. Tumor growth inhibition (TGI) is represented as % and calculated as (1−(treated tumor volume/control tumor volume))×100 when the control group mean tumor volume reached ≧1000 mm^3. […]

[8] = mouse, in vivo, 17 day post-implantation
Method: The stock solution was diluted further with PBS to 0.6, 1.5, 3, 4.5 and 6 mg/mL (for a corresponding dose of 6, 15, 30, 45 and 60 mg/kg) so that all the groups received the same amount of ethanol, polysorbate 80, water and PBS. […] 5) PEGylated O-acetyl-5050-PLGA nanoparticle vehicle at the highest concentration of 6 mg/mL.
The treatments were administered IV into the tail vein at a dose volume of 10 mL/kg, beginning on post-implantation Day 5, when the mean tumor volume was 55 mm^3. The treatments were administered 4 times, on Days 5, 8, 12 and 15 (biweekly×4 injections). On Day 17 post-tumor implantation, mice were euthanized by CO2 inhalation according to the procedure guideline. Blood was collected by cardiac puncture and put into ethylenediaminetetraacetic acid (EDTA) or serum separation blood collection tubes. Whole blood was analyzed on the day of collection for CBC analyses. After the blood clotted and was centrifuged, serum was frozen immediately on dry ice for serum chemistry analyses.
Tolerability was determined by changes in body weight, expressed as a percent of the initial body weight on post-implantation Day 5. […] Other indices of toxicity, complete blood count (CBC) and serum chemistry were determined from blood collected from animals that were euthanized on Day 17 by CO2 inhalation, according to the procedure guideline.

B16.F10 tumor [9] = test: In vivo efficacy, B16.F10 mouse model of melanoma (Example 39)
Method: The treatments were administered on days 5, 8, and 12 (biweekly×3 injections) post tumor implantation. Health status of the animals was monitored and tumor size was measured three times a week. […] Tumors from each animal were dissected and tumor size was measured. Tumor volume was calculated using the formula: (width×width×length)/2 mm^3.

B 16.F10 cells = test: CellTiter-Glo Luminescent Cell Viability Assay, cytotoxic effect of nanoparticles; type: cell-based, mouse; settings: 24, 48 and 72 hours
Method: B 16.F10 cells, grown to 85-90% confluency in 150 cm^2 flasks (passage<30), were resuspended in media (MEM-alpha, 10% HI-FBS, lx antibiotic-antimycotic) and added to 96-well opaque-clear bottom plates at a concentration of 1500 cells/well in 200 μL/well. The cells were incubated at 37° C. with 5% CO2 for 24 hours. The following day, serial dilutions of 2× concentrated particles and 2× concentrated free drug were made in 12-well reservoirs with media to specified concentrations. The media in the plates was replaced with 100 μL of fresh media and 100 μL of the corresponding serially diluted drug. Three sets of plates were prepared with duplicate treatments. Following 24, 48 and 72 hours of incubation at 37° C. with 5% CO2, the media in the plates was replaced with 100 μL of fresh media and 100 μL of CTG solution, and then incubated for 5 minutes on a plate shaker at room temperature set to 450 rpm and allowed to rest for 15 minutes. Viable cells were measured by luminescence using a microtiter plate reader. The data was plotted as % viability vs. concentration and standardized to untreated cells.

[10] = large tumor group, 30 mg/kg 1/wk×2
[11] = large tumor group, 60 mg/kg 1/wk×2
[12] = small tumor group, 30 mg/kg 1/wk×2
[13] = small tumor group, 60 mg/kg 1/wk×2

CC(=O)O[C@@]12CO[C@@H]1C[C@H](O)[C@@]1(C)C(=O)[C@H](O)C3=C(C)[C@@H](OC(=O)[C@H](O)[C@@H](NC(=O)OC(C)(C)C)c4ccccc4)C[C@@](O)([C@@H](OC(=O)c4ccccc4)[C@H]21)C3(C)C [Free docetaxel, docetaxel]
effect on tumors allowed to grow to 500 mm^3 (delayed treatment) (MDA-MB-435 tumor): unable to suppress tumor growth | Ataxia ([1]; 30 mg/kg q7d×2): 0% | Lymphocyte mean ([1]; 30 mg/kg q7d×2, Day 14): 4350 cells/A | Neutrophil mean ([1]; 30 mg/kg q7d×2, Day 14): 556 cells/A | Ataxia ([1]; 45 mg/kg q7d×2): 20% | Lymphocyte mean ([1]; 45 mg/kg q7d×2, Day 14): 6780 cells/A | Neutrophil mean ([1]; 45 mg/kg q7d×2, Day 14): 752 cells/A | Ataxia ([1]; 60 mg/kg q7d×2): 100% | weight lost after the second treatment, by the end of the study ([1]; 60 mg/kg q7d×2): 19% | Lymphocyte mean ([1]; 60 mg/kg q7d×2, Day 14): 5590 cells/A | Neutrophil mean ([1]; 60 mg/kg q7d×2, Day 14): 470 cells/A | effect on serum chemistry ([1]; doses up to 60 mg/kg): did not affect any serum chemistry parameter | Maximum body weight loss [2, 10]: 19% | hind limb paralysis [2, 10]: did not cause any significant body weight loss or hind limb paralysis | Maximum body weight loss [2, 11]: significant body weight loss | hind limb paralysis [2, 11]: severe hind limb paralysis | Maximum body weight loss [2, 12]: 18% | hind limb paralysis [2, 12]: did not cause any significant body weight loss or hind limb paralysis | Maximum body weight loss [2, 13]: significant body weight loss | hind limb paralysis [2, 13]: severe hind limb paralysis | tumor growth delay (TGD) (B16.F10 tumor [3]; q3dq4dx3, 15 mg/kg): 12 days | tumor growth delay (TGD) (B16.F10 tumor [3]; q7dx3, 30 mg/kg): 17 days | day tumor volume end point reached (B16.F10 tumor [3]; q14dx2, 60 mg/kg): 29 days | tumor growth inhibition (TGI) (B16.F10 tumor [3]; q14dx2, 60 mg/kg): 71% | tumor growth with every other week dosing (murine melanoma tumor): not sufficient to suppress tumor growth | tumor growth inhibition (TGI) (HCT-116 tumor): 88% | TGD (HCT-116 tumor; end point 1000 mm^3): 22 days | Maximum body weight loss [4]: 2% | known maximum tolerated dose (MTD) [5]: 30 mg/kg | Maximum body weight loss ([6]; 30 mg/kg 1/biwk×3): 9% | hind limb paralysis ([6]; 30 mg/kg 1/biwk×3): did not cause any significant body weight loss (<10%) or hind limb paralysis | Maximum body weight loss ([6]; 30 mg/kg 1/wk×2): 6% | hind limb paralysis ([6]; 30 mg/kg 1/wk×2): did not cause any significant body weight loss (<10%) or hind limb paralysis | Maximum body weight loss ([6]; 60 mg/kg 1/biwk×3): 21% | hind limb paralysis ([6]; 60 mg/kg 1/biwk×3): severe hind limb paralysis | Maximum body weight loss ([6]; 60 mg/kg 1/wk×2): 23% | hind limb paralysis ([6]; 60 mg/kg 1/wk×2): hind limb paralysis after the 2nd injection followed by recovery | tumor growth delay (TGD) (SK-OV-3 tumor; 15 mg/kg weekly×2): 18 days | tumor growth delay (TGD) (SK-OV-3 tumor; 30 mg/kg weekly×2): 42 days | body weight, % of initial ([7]; 15 mg/kg): 113±11% | body weight, % of initial ([7]; 30 mg/kg): 105±9% | tumor shrinkage (H1299 tumor): no tumor shrinkage | dose up to which no serum chemistry parameter was affected [8]: 30 mg/kg

CC(=O)O[C@H]1C(=O)[C@@]2(C)[C@H]([C@H](OC(=O)c3ccccc3)[C@]3(O)C[C@H](OC(=O)[C@H](O)[C@@H](NC(=O)c4ccccc4)c4ccccc4)C(C)=C1C3(C)C)[C@]1(OC(C)=O)CO[C@@H]1C[C@@H]2O [Free paclitaxel, paclitaxel]
Day-17 TGI (B16.F10 tumor [9]; 6 mg/kg IV days 5, 8, 12): 57% | Day-17 TGI (B16.F10 tumor [9]; 15 mg/kg IV days 5, 8, 12): 83%

OC[C@H]1O[C@@](CO)(O[C@H]2O[C@H](CO)[C@@H](O)[C@H](O)[C@H]2O)[C@@H](O)[C@@H]1O [Sucrose, sucrose]
Recon. Solution Appearance (nanoparticles A, sucrose cycle, lyoprotectant 100 mg/mL, polymer 31.25 mg/mL, 3.2:1): cloudy

OC[C@H]1O[C@@H]2O[C@H]3[C@H](O)[C@@H](O)[C@@H](O[C@H]4[C@H](O)[C@@H](O)[C@@H](O[C@H]5[C@H](O)[C@@H](O)[C@@H](O[C@H]6[C@H](O)[C@@H](O)[C@@H](O[C@H]7[C@H](O)[C@@H](O)[C@@H](O[C@H]8[C@H](O)[C@@H](O)[C@@H](O[C@H]1[C@H](O)[C@H]2O)O[C@@H]8CO)O[C@@H]7CO)O[C@@H]6CO)O[C@@H]5CO)O[C@@H]4CO)O[C@@H]3CO [β-CD, β-cyclodextrin]
solubility of the cyclodextrin in the formulation (40 mg/mL): Beta-CD is not soluble at this

bis(docetaxel) glutamate-5050 PLGA-O-acetyl
growth inhibition of B 16.F10 cells (B 16.F10 cells): inhibited the growth of B 16.F10 cells in a dose and time dependent manner

docetaxel-5050 PLGA-O-acetyl
growth inhibition of B 16.F10 cells (B 16.F10 cells): inhibited the growth of B 16.F10 cells in a dose and time dependent manner

doxorubicin 5050 PLGA amide
growth inhibition of B 16.F10 cells (B 16.F10 cells): inhibited the growth of B 16.F10 cells in a dose and time dependent manner

paclitaxel-5050 PLGA-O-acetyl
growth inhibition of B 16.F10 cells (B 16.F10 cells): inhibited the growth of B 16.F10 cells in a dose and time dependent manner
